The supplement of paper PMC10307832

Key:
Assay in all cases: relative viability (nuclei count vs DMSO), 5 days (fraction); higher = more cells survive
NCI-H2087 = system: NCI-H2087
Procedure, shortened: (§1)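 Lung cancer cell lines were pin-tool dosed in 1536-well plates on the day after seeding, with either a lone drug or a fixed anchor-drug dose plus five library-drug doses (not always all listed) in √10 steps. Nuclei were counted on 4× images after 5 days. Relative viability is the ratio of treated-well to vehicle-well nuclei counts, with each value a median of duplicate plates.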

NCI-H2126 = system: NCI-H2126
Procedure, shortened: as §1

NCI-H2347 = system: NCI-H2347
Procedure, shortened: as §1

NCI-H23 = system: NCI-H23
Procedure, shortened: as §1

NCI-H2405 = system: NCI-H2405
Procedure, shortened: as §1

NCI-H322M = system: NCI-H322M
Procedure, shortened: as §1

NCI-H520 = system: NCI-H520
Procedure, shortened: as §1

NCI-H647 = system: NCI-H647
Procedure, shortened: as §1

NCI-H650 = system: NCI-H650
Procedure, shortened: as §1

NCI-H661 = system: NCI-H661
Procedure, shortened: as §1

PC-14 = system: PC-14
Procedure, shortened: as §1

RERF-LC-KJ = system: RERF-LC-KJ
Procedure, shortened: as §1

**Q.** Which relative viability (NCI-H2087; first compound 0.1 µM) does the source give for NC(=O)Nc1cc(-c2cccc(F)c2)sc1C(=O)N[C@H]1CCCNC1 [AZD7762] + O=C(CCCCCCC(=O)Nc1ccccc1)NO [Vorinostat] (partner 1 µM) here?
**A.** 0.841

**Q.** And the relative viability (NCI-H2087; first compound 0.3162 µM)?
**A.** 0.976

**Q.** What about the relative viability (NCI-H2087; first compound 1 µM) of the same compound?
**A.** 0.791

**Q.** What about the relative viability (NCI-H2126; first compound 0.01 µM) of the same compound?
**A.** 0.688

**Q.** What about the relative viability (NCI-H2126; first compound 0.03162 µM) of the same compound?
**A.** 0.867

**Q.** And the relative viability (NCI-H2126; first compound 0.1 µM)?
**A.** 0.735

**Q.** And the relative viability (NCI-H2126; first compound 0.3162 µM)?
**A.** 0.773

**Q.** And the relative viability (NCI-H2126; first compound 1 µM)?
**A.** 0.775

**Q.** What about the relative viability (NCI-H2347; first compound 0.01 µM) of the same compound?
**A.** 0.554

**Q.** What about the relative viability (NCI-H2347; first compound 0.03162 µM) of the same compound?
**A.** 0.711

**Q.** What about the relative viability (NCI-H2347; first compound 0.1 µM) of the same compound?
**A.** 0.557

**Q.** And the relative viability (NCI-H2347; first compound 0.3162 µM)?
**A.** 0.637

**Q.** And the relative viability (NCI-H2347; first compound 1 µM)?
**A.** 0.547

**Q.** And the relative viability (NCI-H23; first compound 0.01 µM)?
**A.** 0.634

**Q.** What about the relative viability (NCI-H23; first compound 0.03162 µM) of the same compound?
**A.** 0.503

**Q.** And the relative viability (NCI-H23; first compound 0.1 µM)?
**A.** 0.582

**Q.** What about the relative viability (NCI-H23; first compound 0.3162 µM) of the same compound?
**A.** 0.248

**Q.** What about the relative viability (NCI-H23; first compound 1 µM) of the same compound?
**A.** 0.149

**Q.** And the relative viability (NCI-H2405; first compound 0.01 µM)?
**A.** 1.08

**Q.** What about the relative viability (NCI-H2405; first compound 0.03162 µM) of the same compound?
**A.** 1.08

**Q.** What about the relative viability (NCI-H2405; first compound 0.1 µM) of the same compound?
**A.** 0.976

**Q.** What about the relative viability (NCI-H2405; first compound 0.3162 µM) of the same compound?
**A.** 0.756

**Q.** What about the relative viability (NCI-H2405; first compound 1 µM) of the same compound?
**A.** 0.521

**Q.** And the relative viability (NCI-H322M; first compound 0.01 µM)?
**A.** 0.822

**Q.** What about the relative viability (NCI-H322M; first compound 0.03162 µM) of the same compound?
**A.** 0.967

**Q.** And the relative viability (NCI-H322M; first compound 0.1 µM)?
**A.** 0.935

**Q.** And the relative viability (NCI-H322M; first compound 0.3162 µM)?
**A.** 0.792

**Q.** And the relative viability (NCI-H322M; first compound 1 µM)?
**A.** 0.478

**Q.** What about the relative viability (NCI-H520; first compound 0.01 µM) of the same compound?
**A.** 0.78

**Q.** What about the relative viability (NCI-H520; first compound 0.03162 µM) of the same compound?
**A.** 0.825

**Q.** And the relative viability (NCI-H520; first compound 0.1 µM)?
**A.** 0.635

**Q.** What about the relative viability (NCI-H520; first compound 0.3162 µM) of the same compound?
**A.** 0.375

**Q.** What about the relative viability (NCI-H520; first compound 1 µM) of the same compound?
**A.** 0.187

**Q.** And the relative viability (NCI-H647; first compound 0.01 µM)?
**A.** 0.637

**Q.** What about the relative viability (NCI-H647; first compound 0.03162 µM) of the same compound?
**A.** 0.554

**Q.** What about the relative viability (NCI-H647; first compound 0.1 µM) of the same compound?
**A.** 0.521

**Q.** What about the relative viability (NCI-H647; first compound 0.3162 µM) of the same compound?
**A.** 0.281

**Q.** What about the relative viability (NCI-H647; first compound 1 µM) of the same compound?
**A.** 0.108

**Q.** And the relative viability (NCI-H650; first compound 0.01 µM)?
**A.** 0.435

**Q.** What about the relative viability (NCI-H650; first compound 0.03162 µM) of the same compound?
**A.** 0.404

**Q.** And the relative viability (NCI-H650; first compound 0.1 µM)?
**A.** 0.411

**Q.** And the relative viability (NCI-H650; first compound 0.3162 µM)?
**A.** 0.399

**Q.** And the relative viability (NCI-H650; first compound 1 µM)?
**A.** 0.334

**Q.** And the relative viability (NCI-H661; first compound 0.01 µM)?
**A.** 0.929

**Q.** And the relative viability (NCI-H661; first compound 0.03162 µM)?
**A.** 0.867

**Q.** And the relative viability (NCI-H661; first compound 0.1 µM)?
**A.** 0.98

**Q.** And the relative viability (NCI-H661; first compound 0.3162 µM)?
**A.** 0.604

**Q.** And the relative viability (NCI-H661; first compound 1 µM)?
**A.** 0.341

**Q.** What about the relative viability (PC-14; first compound 0.01 µM) of the same compound?
**A.** 0.761

**Q.** And the relative viability (PC-14; first compound 0.03162 µM)?
**A.** 0.591

**Q.** And the relative viability (PC-14; first compound 0.1 µM)?
**A.** 0.57

**Q.** And the relative viability (PC-14; first compound 0.3162 µM)?
**A.** 0.292

**Q.** And the relative viability (PC-14; first compound 1 µM)?
**A.** 0.0419

**Q.** And the relative viability (RERF-LC-KJ; first compound 0.01 µM)?
**A.** 0.749

**Q.** What about the relative viability (RERF-LC-KJ; first compound 0.03162 µM) of the same compound?
**A.** 0.695

**Q.** And the relative viability (RERF-LC-KJ; first compound 0.1 µM)?
**A.** 0.711

**Q.** What about the relative viability (RERF-LC-KJ; first compound 0.3162 µM) of the same compound?
**A.** 0.722

**Q.** And the relative viability (RERF-LC-KJ; first compound 1 µM)?
**A.** 0.601
